The nature of this data set: method code SF-AS, from Yamada, T.; Tsukamoto, Y.; Shimamura, H.; Banno, S.; Sato, M. (1983). Pyridazinones 4. synthesis anti secretory and anti ulcer activities of urea derivatives. Eur J Med Chem, 18(3)209-214.

For orientation: logP means the decadic logarithm of the partition coefficient of the neutral form, usually between octanol and water. As to `CC(C)NC(=O)NCCCCn1nc(-c2ccccc2)ccc1=O`, the logP is 1.91. The figure for `CCNC(=O)NCCCCCCn1nc(-c2ccccc2)ccc1=O` is 1.81; for `CNC(=O)NCCCn1nc(-c2ccccc2)ccc1=O` it is 1.16.

Compound `CCNC(=O)NCCCCn1nc(-c2ccccc2)ccc1=O` gave a logP of 1.83. As for `CC(C)(C)NC(=O)NCCCCn1nc(-c2ccccc2)ccc1=O`, the logP came out at 2.07. The figure for `CNC(=O)NCCCCCCn1nc(-c2ccccc2)ccc1=O` is 1.31. The figure for `CCNC(=O)NCCCn1nc(-c2ccccc2)ccc1=O` is 1.68; for `CCCCNC(=O)NCCCCn1nc(-c2ccccc2)ccc1=O` it is 2.2. The figure for `CCN(CC)C(=O)NCCCn1nc(-c2ccccc2)ccc1=O` is 1.72; for `O=C(NCCCCn1nc(-c2ccccc2)ccc1=O)Nc1ccccc1` it is 2.32; for `CCN(CC)C(=O)NCCCCCCn1nc(-c2ccccc2)ccc1=O` it is 1.85. In turn, `CN(C)C(=O)NCCCCCn1nc(-c2ccccc2)ccc1=O` gave a lipophilicity (logP) of 1.74. The figure for `CCN(CC)C(=O)NCCCCn1nc(-c2ccccc2)ccc1=O` is 1.89. The figure for `NC(=O)NCCCCn1nc(-c2ccccc2)ccc1=O` is 1.21; for `O=C(NCCCCCn1nc(-c2ccccc2)ccc1=O)NC1CCCCC1` it is 2.03; for `CNC(=O)NCCCCCCCn1nc(-c2ccccc2)ccc1=O` it is 1.06. Compound `CN(C)C(=O)NCCCCCCn1nc(-c2ccccc2)ccc1=O` displayed a logP of 1.45. In turn, `CNC(=O)NCCCCCn1nc(-c2ccccc2)ccc1=O` displayed a logP of 1.26. The figure for `CCCNC(=O)NCCCCn1nc(-c2ccccc2)ccc1=O` is 1.71; for `O=C(NCCCCn1nc(-c2ccccc2)ccc1=O)NC1CCCCC1` it is 1.99; for `CN(C)C(=O)NCCCCn1nc(-c2ccccc2)ccc1=O` it is 1.58.

The compound `NC(=O)NCCCn1nc(-c2ccccc2)ccc1=O` had a logP of 0.69. As for `CN(C)C(=O)NCCCn1nc(-c2ccccc2)ccc1=O`, the logP stood at 1.61. Consider `CNC(=O)NCCn1nc(-c2ccccc2)ccc1=O`, for which the logP was 0.39. The figure for `CNC(=O)NCCCCn1nc(-c2ccccc2)ccc1=O` is 1.23; for `NC(=O)NCCCCCCn1nc(-c2ccccc2)ccc1=O` it is 1.82; for `NC(=O)NCCn1nc(-c2ccccc2)ccc1=O` it is 0.52. `CCNC(=O)NCCCCCn1nc(-c2ccccc2)ccc1=O` displayed a logP of 1.76. The figure for `Cc1ccc(S(=O)(=O)NC(=O)NCCCCn2nc(-c3ccccc3)ccc2=O)cc1` is 1.77. Regarding `CNC(=O)NCCCCCCCCn1nc(-c2ccccc2)ccc1=O`, the logP is 0.84. The figure for `NC(=O)NCCCCCn1nc(-c2ccccc2)ccc1=O` is 1.08.

The values above are taken from the SangsterLogP compilation.
